Experimental data from ChEMBL document CHEMBL5291721, “A preclinical secondary pharmacology resource illuminates target-adverse drug reaction associations of marketed drugs” (Nat Commun, 2023).

Key:
Cannabinoid receptor 1 = Cannabinoid receptor 1 (Homo sapiens, UniProt P21554); format: functional, cell-based
[1] = target: Sodium-dependent noradrenaline transporter (Homo sapiens, UniProt P23975)
B2 bradykinin receptor = target: T1, B2 bradykinin receptor (Homo sapiens, UniProt P30411)
T1 sequence (P30411 whole entry): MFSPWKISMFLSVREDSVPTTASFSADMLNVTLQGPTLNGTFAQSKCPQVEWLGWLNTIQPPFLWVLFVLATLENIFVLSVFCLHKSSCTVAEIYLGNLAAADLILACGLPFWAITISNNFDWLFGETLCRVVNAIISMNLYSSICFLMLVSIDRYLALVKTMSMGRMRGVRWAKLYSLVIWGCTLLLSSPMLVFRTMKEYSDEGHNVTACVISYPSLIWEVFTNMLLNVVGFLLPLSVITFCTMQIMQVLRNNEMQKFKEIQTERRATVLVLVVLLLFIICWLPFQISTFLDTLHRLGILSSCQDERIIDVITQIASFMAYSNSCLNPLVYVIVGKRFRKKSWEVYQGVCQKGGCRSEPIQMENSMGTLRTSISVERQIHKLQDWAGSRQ

[2] = target: T2, Alpha-1A adrenergic receptor (Homo sapiens, UniProt P35348); format: functional, cell-based
T2 sequence (P35348 whole entry): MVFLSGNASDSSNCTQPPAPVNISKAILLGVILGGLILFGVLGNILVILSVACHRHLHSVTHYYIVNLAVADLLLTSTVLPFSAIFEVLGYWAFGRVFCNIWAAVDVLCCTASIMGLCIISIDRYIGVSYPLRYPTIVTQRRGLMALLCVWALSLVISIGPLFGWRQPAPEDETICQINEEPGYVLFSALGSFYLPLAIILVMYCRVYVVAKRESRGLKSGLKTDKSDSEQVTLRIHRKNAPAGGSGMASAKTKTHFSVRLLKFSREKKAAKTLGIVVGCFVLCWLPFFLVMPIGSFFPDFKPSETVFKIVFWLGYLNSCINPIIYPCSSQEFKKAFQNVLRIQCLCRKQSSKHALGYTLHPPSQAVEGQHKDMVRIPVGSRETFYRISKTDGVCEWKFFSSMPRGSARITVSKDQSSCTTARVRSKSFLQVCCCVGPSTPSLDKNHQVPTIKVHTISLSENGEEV

[3] = target: 3',5'-cyclic-AMP phosphodiesterase 4D (Homo sapiens, UniProt Q08499); format: functional
[4] = target: Neuronal acetylcholine receptor subunit alpha-4 (Homo sapiens, UniProt P43681)
[5] = target: Gamma-aminobutyric acid receptor subunit alpha-1 (Rattus norvegicus, UniProt P62813)
D(3) dopamine receptor = D(3) dopamine receptor (Homo sapiens, UniProt P35462)
[6] = target: 5-hydroxytryptamine receptor 2B (Homo sapiens, UniProt P41595); format: functional, cell-based
[7] = target: T3, Neuropeptide Y receptor type 1 (Homo sapiens, UniProt P25929)
T3 sequence (P25929 whole entry): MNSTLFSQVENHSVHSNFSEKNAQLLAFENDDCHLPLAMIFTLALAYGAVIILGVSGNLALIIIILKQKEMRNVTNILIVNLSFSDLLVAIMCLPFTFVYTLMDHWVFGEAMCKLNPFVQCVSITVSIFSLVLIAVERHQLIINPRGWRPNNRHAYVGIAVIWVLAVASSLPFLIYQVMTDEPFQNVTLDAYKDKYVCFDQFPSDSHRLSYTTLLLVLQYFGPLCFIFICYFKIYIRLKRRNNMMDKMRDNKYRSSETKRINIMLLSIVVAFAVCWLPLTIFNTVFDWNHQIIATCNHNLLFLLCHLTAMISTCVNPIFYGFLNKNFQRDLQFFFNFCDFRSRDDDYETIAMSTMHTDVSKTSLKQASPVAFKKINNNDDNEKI

[8] = target: Kappa-type opioid receptor (Homo sapiens, UniProt P41145)
[9] = target: T4, Cholecystokinin receptor type A (Homo sapiens, UniProt P32238)
T4 sequence (P32238 whole entry): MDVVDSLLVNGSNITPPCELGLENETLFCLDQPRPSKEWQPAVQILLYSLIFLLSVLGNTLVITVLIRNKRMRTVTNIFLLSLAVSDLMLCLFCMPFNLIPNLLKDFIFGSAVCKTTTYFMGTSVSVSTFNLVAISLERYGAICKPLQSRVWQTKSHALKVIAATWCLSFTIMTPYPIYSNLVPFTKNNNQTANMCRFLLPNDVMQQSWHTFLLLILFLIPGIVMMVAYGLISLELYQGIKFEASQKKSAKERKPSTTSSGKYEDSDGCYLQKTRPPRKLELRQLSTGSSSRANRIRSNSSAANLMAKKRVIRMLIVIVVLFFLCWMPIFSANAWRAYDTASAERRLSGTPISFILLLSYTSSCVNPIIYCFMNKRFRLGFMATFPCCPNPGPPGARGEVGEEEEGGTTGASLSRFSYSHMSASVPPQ

[10] = target: Voltage-dependent L-type calcium channel subunit alpha-1C (Rattus norvegicus, UniProt P22002); format: functional
[11] = target: T5, 5-hydroxytryptamine receptor 2A (Homo sapiens, UniProt P28223); format: functional, cell-based
[12] = target: T5, 5-hydroxytryptamine receptor 2A; format: functional, cell-based; remark: listed apart in the source
Note: assay procedure not described here.

Sequence of Sodium-dependent noradrenaline transporter (P23975 whole entry): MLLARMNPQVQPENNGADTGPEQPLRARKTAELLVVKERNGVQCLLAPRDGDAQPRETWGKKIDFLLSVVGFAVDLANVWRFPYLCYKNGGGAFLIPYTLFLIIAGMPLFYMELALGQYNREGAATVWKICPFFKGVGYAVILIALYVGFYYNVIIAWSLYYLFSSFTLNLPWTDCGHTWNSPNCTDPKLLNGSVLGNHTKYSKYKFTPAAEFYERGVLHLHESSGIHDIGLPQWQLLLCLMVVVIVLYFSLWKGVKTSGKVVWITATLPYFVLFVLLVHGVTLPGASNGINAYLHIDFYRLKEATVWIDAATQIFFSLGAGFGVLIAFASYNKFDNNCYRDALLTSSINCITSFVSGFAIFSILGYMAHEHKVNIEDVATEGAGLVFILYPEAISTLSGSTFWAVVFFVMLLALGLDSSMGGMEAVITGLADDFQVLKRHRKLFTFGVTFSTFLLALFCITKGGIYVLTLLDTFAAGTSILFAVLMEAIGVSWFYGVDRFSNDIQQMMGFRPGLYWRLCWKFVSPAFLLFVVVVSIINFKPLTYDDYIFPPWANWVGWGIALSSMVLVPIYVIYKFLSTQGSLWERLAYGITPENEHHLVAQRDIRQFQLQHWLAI
T5 sequence (P28223 whole entry): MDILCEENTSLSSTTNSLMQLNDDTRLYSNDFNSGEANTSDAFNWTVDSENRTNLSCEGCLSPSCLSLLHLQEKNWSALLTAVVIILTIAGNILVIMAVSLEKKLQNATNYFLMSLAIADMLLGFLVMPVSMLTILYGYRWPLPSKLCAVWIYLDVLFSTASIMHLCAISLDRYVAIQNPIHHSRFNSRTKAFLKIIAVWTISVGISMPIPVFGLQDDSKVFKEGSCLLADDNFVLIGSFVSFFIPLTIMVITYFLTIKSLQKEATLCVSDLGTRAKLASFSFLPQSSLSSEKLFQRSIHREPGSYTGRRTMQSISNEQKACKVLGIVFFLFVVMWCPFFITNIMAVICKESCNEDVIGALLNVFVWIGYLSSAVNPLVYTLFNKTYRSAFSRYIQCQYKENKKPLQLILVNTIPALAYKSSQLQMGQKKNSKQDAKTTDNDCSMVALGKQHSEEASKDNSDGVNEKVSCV
Sequence of D(3) dopamine receptor (P35462 whole entry): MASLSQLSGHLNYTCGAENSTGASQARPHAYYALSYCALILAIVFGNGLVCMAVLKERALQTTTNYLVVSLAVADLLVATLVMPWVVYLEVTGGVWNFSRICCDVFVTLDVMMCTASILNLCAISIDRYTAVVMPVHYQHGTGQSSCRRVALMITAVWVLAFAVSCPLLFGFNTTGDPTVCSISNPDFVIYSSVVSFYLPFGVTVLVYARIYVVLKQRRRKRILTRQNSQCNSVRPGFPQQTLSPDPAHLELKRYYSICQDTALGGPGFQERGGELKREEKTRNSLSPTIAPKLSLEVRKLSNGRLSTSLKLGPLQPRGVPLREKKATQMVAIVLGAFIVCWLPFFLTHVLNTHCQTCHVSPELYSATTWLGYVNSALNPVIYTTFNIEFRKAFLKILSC
Sequence of 5-hydroxytryptamine receptor 2B (P41595 whole entry): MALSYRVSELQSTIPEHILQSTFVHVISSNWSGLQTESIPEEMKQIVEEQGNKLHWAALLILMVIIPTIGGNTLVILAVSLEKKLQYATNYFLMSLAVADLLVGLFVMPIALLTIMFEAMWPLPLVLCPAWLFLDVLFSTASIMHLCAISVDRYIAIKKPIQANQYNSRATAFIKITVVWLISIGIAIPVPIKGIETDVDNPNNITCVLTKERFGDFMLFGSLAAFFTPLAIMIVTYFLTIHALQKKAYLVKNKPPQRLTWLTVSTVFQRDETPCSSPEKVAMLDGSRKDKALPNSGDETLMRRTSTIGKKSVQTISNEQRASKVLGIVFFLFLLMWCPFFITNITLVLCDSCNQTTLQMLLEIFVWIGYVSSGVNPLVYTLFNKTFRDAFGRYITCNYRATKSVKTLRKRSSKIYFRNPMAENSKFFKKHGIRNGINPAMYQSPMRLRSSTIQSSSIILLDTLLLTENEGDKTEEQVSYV
Sequence of Neuronal acetylcholine receptor subunit alpha-4 (P43681 whole entry): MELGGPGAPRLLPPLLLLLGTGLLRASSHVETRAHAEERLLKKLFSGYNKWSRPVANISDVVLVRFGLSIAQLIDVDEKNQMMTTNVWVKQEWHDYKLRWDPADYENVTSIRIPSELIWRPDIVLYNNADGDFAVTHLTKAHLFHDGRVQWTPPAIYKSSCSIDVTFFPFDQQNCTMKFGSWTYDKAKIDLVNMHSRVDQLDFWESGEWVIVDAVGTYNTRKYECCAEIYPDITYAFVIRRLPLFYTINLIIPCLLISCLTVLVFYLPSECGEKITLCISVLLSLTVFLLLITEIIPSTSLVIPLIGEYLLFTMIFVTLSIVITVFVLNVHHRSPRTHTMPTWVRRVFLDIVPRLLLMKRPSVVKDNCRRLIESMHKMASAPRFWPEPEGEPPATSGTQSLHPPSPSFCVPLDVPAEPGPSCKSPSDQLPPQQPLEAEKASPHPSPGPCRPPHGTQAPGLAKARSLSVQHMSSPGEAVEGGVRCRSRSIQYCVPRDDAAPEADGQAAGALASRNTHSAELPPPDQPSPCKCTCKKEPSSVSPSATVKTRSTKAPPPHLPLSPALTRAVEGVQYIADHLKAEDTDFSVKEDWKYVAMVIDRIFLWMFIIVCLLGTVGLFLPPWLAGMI
Sequence of Voltage-dependent L-type calcium channel subunit alpha-1C (P22002 whole entry): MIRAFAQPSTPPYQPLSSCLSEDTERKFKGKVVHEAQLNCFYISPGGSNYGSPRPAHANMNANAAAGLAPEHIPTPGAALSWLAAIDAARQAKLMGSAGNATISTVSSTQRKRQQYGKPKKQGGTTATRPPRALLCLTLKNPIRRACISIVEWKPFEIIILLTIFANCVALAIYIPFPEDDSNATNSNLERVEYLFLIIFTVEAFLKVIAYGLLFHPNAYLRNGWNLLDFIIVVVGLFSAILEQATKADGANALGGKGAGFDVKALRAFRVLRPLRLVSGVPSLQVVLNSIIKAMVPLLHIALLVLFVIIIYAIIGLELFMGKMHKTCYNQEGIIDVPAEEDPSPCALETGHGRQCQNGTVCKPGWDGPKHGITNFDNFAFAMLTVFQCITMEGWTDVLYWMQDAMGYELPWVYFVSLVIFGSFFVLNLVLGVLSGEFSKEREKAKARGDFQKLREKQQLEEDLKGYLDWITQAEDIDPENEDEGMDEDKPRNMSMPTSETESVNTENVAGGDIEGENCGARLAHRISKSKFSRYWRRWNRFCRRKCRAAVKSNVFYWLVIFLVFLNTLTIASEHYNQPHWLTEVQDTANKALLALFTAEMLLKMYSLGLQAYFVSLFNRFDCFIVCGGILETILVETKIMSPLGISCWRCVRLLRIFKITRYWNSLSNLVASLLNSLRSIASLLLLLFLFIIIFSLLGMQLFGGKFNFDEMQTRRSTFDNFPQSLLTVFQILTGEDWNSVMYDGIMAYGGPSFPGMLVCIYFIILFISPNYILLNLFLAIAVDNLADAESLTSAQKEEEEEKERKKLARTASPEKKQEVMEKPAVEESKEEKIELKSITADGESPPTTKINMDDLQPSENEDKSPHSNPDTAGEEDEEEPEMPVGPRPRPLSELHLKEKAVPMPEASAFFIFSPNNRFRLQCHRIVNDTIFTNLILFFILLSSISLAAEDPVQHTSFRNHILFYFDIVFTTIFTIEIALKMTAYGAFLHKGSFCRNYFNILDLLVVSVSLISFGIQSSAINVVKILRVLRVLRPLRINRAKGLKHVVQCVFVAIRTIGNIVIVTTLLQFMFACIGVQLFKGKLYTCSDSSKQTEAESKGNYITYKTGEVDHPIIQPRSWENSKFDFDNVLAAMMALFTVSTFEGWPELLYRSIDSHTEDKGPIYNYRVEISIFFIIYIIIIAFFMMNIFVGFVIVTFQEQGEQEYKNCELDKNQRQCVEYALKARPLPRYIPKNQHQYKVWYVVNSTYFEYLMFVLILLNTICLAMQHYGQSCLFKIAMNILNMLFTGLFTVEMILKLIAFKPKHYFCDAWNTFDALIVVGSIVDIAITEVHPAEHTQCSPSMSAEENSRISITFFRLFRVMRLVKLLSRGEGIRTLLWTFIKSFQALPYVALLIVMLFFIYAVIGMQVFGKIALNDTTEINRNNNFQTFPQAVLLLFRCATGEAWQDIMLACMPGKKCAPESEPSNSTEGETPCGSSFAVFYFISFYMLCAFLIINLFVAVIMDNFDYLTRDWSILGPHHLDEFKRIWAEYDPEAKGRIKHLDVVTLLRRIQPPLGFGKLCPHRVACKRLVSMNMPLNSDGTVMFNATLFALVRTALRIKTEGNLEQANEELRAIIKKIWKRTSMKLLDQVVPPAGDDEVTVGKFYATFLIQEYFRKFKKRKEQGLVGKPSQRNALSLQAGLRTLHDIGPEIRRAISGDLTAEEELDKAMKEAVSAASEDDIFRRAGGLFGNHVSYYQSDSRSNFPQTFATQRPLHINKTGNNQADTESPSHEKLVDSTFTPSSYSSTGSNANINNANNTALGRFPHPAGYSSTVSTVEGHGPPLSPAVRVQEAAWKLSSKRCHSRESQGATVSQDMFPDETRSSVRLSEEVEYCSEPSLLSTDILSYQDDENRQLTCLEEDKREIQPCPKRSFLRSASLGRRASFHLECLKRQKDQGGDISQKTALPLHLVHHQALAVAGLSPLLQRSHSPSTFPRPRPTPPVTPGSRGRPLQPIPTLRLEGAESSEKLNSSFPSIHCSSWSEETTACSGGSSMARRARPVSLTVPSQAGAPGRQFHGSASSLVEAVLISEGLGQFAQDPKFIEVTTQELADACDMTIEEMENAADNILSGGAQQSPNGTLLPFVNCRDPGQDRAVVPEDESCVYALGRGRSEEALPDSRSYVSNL

| SMILES | AC50 (Cannabinoid receptor 1) [µM] | AC50 [1] [µM] | AC50 (B2 bradykinin receptor) [µM] | AC50 [2] [µM] | AC50 [3] [µM] | AC50 [4] [µM] | AC50 [5] [µM] | AC50 (D(3) dopamine receptor) [µM] | AC50 [6] [µM] | AC50 [7] [µM] | AC50 [8] [µM] | AC50 [9] [µM] | AC50 [10] [µM] | AC50 [11] [µM] | AC50 [12] [µM] |
| --- | --- | --- | --- | --- | --- | --- | --- | --- | --- | --- | --- | --- | --- | --- | --- |
| COc1cccc2c1C(=O)c1c(O)c3c(c(O)c1C2=O)C[C@@](O)(C(=O)CO)C[C@@H]3O[C@H]1C[C@H](N)[C@H](O)[C@H](C)O1 [DOXORUBICIN] | > 30 | > 30 | > 30 | 16 | > 30 | > 30 | > 10 | > 30 | 15 | > 30 | > 10 | > 30 | > 10 | – | – |
| Cc1ccc(O)c([C@H](CCN(C(C)C)C(C)C)c2ccccc2)c1 [TOLTERODINE] | > 30 | > 10 | – | > 30 | – | > 10 | > 30 | > 10 | > 10 | – | 6.71 | – | > 10 | – | – |
| Oc1cc(Cl)ccc1Oc1ccc(Cl)cc1Cl [TRICLOSAN] | > 30 | 0.7 | > 30 | > 30 | > 30 | > 30 | > 10 | > 30 | > 30 | > 30 | > 30 | > 30 | – | > 30 | > 30 |
| CN(C)[C@@H]1C(O)=C(C(=O)NCN2CCCC2)C(=O)[C@@]2(O)C(O)=C3C(=O)c4c(O)cccc4[C@@](C)(O)[C@H]3C[C@@H]12 [ROLITETRACYCLINE] | > 30 | > 10 | > 10 | > 30 | > 30 | > 10 | > 10 | > 30 | > 10 | > 10 | > 10 | > 10 | > 10 | > 30 | > 30 |
| CCn1c(=O)c2c(nc(/C=C/c3ccc(OC)c(OC)c3)n2C)n(CC)c1=O [ISTRADEFYLLINE] | – | > 30 | – | > 30 | 1.8 | > 30 | – | – | – | – | – | – | – | > 30 | > 30 |
| Cc1cn(-c2cc(NC(=O)c3ccc(C)c(Nc4nccc(-c5cnccn5)n4)c3)cc(C(F)(F)F)c2)cn1 [RADOTINIB] | – | > 30 | – | > 30 | > 30 | 27 | – | – | – | – | – | – | – | > 30 | > 30 |

The next lines start with the values.

| AC50 (Cannabinoid receptor 1) [µM] | AC50 [1] [µM] | AC50 (B2 bradykinin receptor) [µM] | AC50 [2] [µM] | AC50 [3] [µM] | AC50 [4] [µM] | AC50 [5] [µM] | AC50 (D(3) dopamine receptor) [µM] | AC50 [6] [µM] | AC50 [7] [µM] | AC50 [8] [µM] | AC50 [9] [µM] | AC50 [10] [µM] | AC50 [11] [µM] | AC50 [12] [µM] | SMILES |
| --- | --- | --- | --- | --- | --- | --- | --- | --- | --- | --- | --- | --- | --- | --- | --- |
| > 30 | > 30 | > 30 | > 30 | > 30 | > 10 | > 10 | > 30 | > 10 | > 30 | > 10 | > 30 | > 10 | – | – | C[C@]12C=CC(=O)C=C1CC[C@@H]1[C@@H]2[C@@H](O)C[C@@]2(C)[C@H]1CC[C@]2(O)C(=O)CO [PREDNISOLONE] |
| – | > 10 | > 10 | – | > 10 | > 10 | > 10 | 0.53 | 0.23 | > 10 | 1.7 | > 10 | > 10 | 1 | > 10 | CCC(=O)c1ccc2c(c1)N(CC(C)N(C)C)c1ccccc1S2 (stereo unspecified) [PROPIOMAZINE] |
| > 30 | – | > 30 | – | > 30 | > 30 | > 30 | > 30 | > 30 | > 30 | > 30 | > 30 | > 30 | – | – | CC1(C)O[C@@H]2C[C@H]3[C@@H]4CCC5=CC(=O)C=C[C@]5(C)[C@@]4(F)[C@@H](O)C[C@]3(C)[C@]2(C(=O)CO)O1 [TRIAMCINOLONE ACETONIDE] |
| – | > 30 | > 30 | > 30 | > 30 | > 30 | > 30 | > 30 | – | > 30 | > 30 | > 30 | > 30 | 24 | > 30 | C[C@]12CCC(=O)C=C1[C@@H]1C[C@@H]1[C@H]1[C@@H]3[C@@H]4C[C@@H]4[C@@]4(CCC(=O)O4)[C@@]3(C)CC[C@@H]12 [DROSPIRENONE] |
| > 30 | > 10 | > 10 | – | > 30 | > 10 | > 10 | > 30 | > 10 | > 10 | 7.1 | > 10 | > 10 | 4.4 | > 10 | CN(C)CCC(O)(c1ccccc1)c1ccccc1Cl (stereo unspecified) [CHLOPHEDIANOL] |
| > 30 | > 30 | > 3 | > 30 | > 30 | > 30 | > 30 | > 30 | > 30 | > 30 | > 30 | > 30 | – | > 30 | > 30 | C[C@]12C=CC(=O)C=C1C(Cl)=C[C@@H]1[C@@H]2[C@@H](O)C[C@@]2(C)[C@H]1CC[C@]2(O)C(=O)CO [CLOPREDNOL] |
| > 30 | > 30 | > 30 | > 30 | > 30 | > 30 | > 30 | > 30 | > 30 | > 30 | 19 | > 30 | > 30 | > 30 | > 30 | C[C@]12CCC(=O)C=C1C=C[C@@H]1[C@@H]2CC[C@@]2(C)[C@H]1CC[C@@]21CCC(=O)O1 [CANRENONE] |
| > 30 | > 30 | > 30 | > 30 | > 30 | > 30 | > 30 | > 30 | > 30 | > 30 | > 30 | > 30 | > 30 | > 30 | > 30 | CC(C)(Oc1ccc(Cl)cc1)C(=O)OCCOC(=O)c1cccnc1 [ETOFIBRATE] |
| > 30 | 7.3 | > 30 | > 30 | > 10 | 9.2 | > 30 | > 30 | > 30 | 9.8 | > 30 | > 10 | > 30 | > 30 | > 30 | COc1ccc(-c2cc(=S)ss2)cc1 [ANETHOLTRITHION] |
